From article PMC9571093, “Synthesis and Characterization of Novel Hydrazone Derivatives of Isonicotinic Hydrazide and Their Evaluation for Antibacterial and Cytotoxic Potential” (Molecules, 2022) come the findings set out here.

In brackets after ≈: the same amount, converted by molar mass.

Series [1] concerns Bacillus subtilis ATCC 11774. As to the kind of experiment: Paper disc diffusion, zone of inhibition. To be noted: disc with 1000 µg mL−1 in DMSO, 37 °C; for zone of inhibition at 1000 µg/mL: Bacillus subtilis, ATCC11774, 24 h. In kind it is cell-based. The protocol: (§1) All the synthesized compounds were screened for antibacterial activities using minimum inhibitory concentrations (MIC) and zone of inhibitions against Gram (+)and Gram (−) bacterial strains. ATCC strains of the test microorganism selected for antibacterial assay were Gram-positive bacteria; Staphylococcus aureus ATCC 25923, Bacillus subtilus ATCC 11774, and Gram-negative bacteria; Escherichia coli ATCC 10536. The bacterial strains’ stock cultures were kept in Nutrient agar (Oxoid, UK) at 4 °C and inocula were prepared by transferring several single colonies of microbes to a sterile Mueller Hinton broth. The bacterial cell suspension was mixed until homogeneity to give a final density of 5 × 10^5 cfu/mL
(§2) Preliminary screenings of synthesized compounds were conducted on agar plates using the disc diffusion method. The plates were prepared using Mueller–Hinton agar following the autoclave process (121 °C for 30 min). After cooling, the plates were inoculated with the suspension of microorganisms (S. aureus, B. subtilis and E. coli). The paper discs impregnated with the test compounds (1000 µg mL^−1 in dimethyl sulfoxide) were placed on the solidified medium and incubated at 37 °C for 24 hours before recording the zone of inhibition in millimeters.
Background: Agar diffusion results depend on both activity and mobility in agar.

Series [2] concerns Escherichia coli ATCC 10536. Put plainly: Paper disc diffusion, zone of inhibition. It counts as cell-based. The conditions noted are these: ATCC10536, disc with 1000 µg mL−1 in DMSO, 37 °C, 24 h. The protocol:
as §1, §2

Series [3] relates to Staphylococcus aureus ATCC 25923. As to the kind of experiment: Paper disc diffusion, zone of inhibition. The conditions noted are these: Staphylococcus aureus, ATCC25923, 24 h, disc with 1000 µg mL−1 in DMSO, 37 °C. In kind it is cell-based. The protocol:
as §1, §2

The test system of another series is B. subtilis ATCC 11774. As to the kind of experiment: Tetrazolium (MTT) microplate assay of minimum inhibitory concentration. The conditions noted are these: Bacillus subtilis, ATCC11774. In kind it is cell-based. The protocol:
as §1
(§3) The minimum inhibitory concentrations of test microorganisms and reference material were determined using the tetrazolium microplate assay method. The assay was performed using a 96-well clear microtiter plate. Freshly harvested bacterial cell and fungal cell suspensions were seeded at 5 × 10^5 cfu/mL in each well of the 96-well plate. Different concentrations, 500 to 10 µg/mL, of the test compounds were diluted in series with Muller–Hinton broth. A volume of 200 µL of each concentration was added in triplicate to the wells and the plates were then incubated for 18–24 h at 37 °C ± 0.5. After incubation, in each well, 50 µL of 3-(4, 5-dimethylthiazol-2-yl)-2, 5-diphenyltetrazolium bromide MTT, having a concentration of 0.2 mg/mL, was added and the plate was incubated at 37 °C for 30 min. An appropriate solvent blank (DMSO) was included as the negative control and the bacterial suspension was included as the positive control. The absorbance was measured at 570 nm with a reference wavelength of 650 nm by adding DMSO using a spectrophotometer and the percentage reduction of the dye (indicating the bacterial growth inhibition) was calculated.

The test system of a further series is E. coli ATCC 10536. Described as above. It counts as cell-based. To be noted: Escherichia coli, ATCC10536. The protocol:
as §1, §3

A further series deals with S. aureus ATCC 25923. The description is as above. The conditions noted are these: Staphylococcus aureus, ATCC25923. It counts as cell-based. The protocol:
as §1, §3

A short description of series [4]: Brine shrimp lethality bioassay. The conditions noted are these: Artemia salina (brine shrimp) nauplii, in vivo, other: exposure in sea water containing the compound, 24 h incubation, regression analysis, read-out: LC50 (median lethal concentration). In kind it is in vivo, Artemia salina. The protocol:
(§4) The cytotoxicities of synthesized hydrazones were recorded by employing an in vitro brine shrimp lethality bioassay technique. The eggs of Artemia salina (brine shrimp) were allowed to incubate at 30 °C for 48 h under a light and dark cycle using artificial sea water before subjecting them to the sample solutions. The hatched larvae (nauplii) were collected with using a Pasteur pipette and were transferred to freshly prepared sea water (commercial salt and double-distilled water). The stock solutions of each compound were prepared at 500 µg/mL concentration in DMSO and sea water at 1:1, and further serial dilutions of 25, 50, 100, 200 and 300 µg/mL were prepared using sea water. Using a 2mL volume from each dilution, sea water containing 10 nauplii was added to a test tube and incubated for 24 h. A solvent mixture with nauplii containing no test compound was used as the control. After due time, the number of nauplii that survived was determined using a magnifying glass. The experiment was performed in triplicate and the median lethal concentration (LC50) ± SEM was calculated using regression analysis.

The subject of series [5] is Artemia salina (brine shrimp) nauplii. Put plainly: Brine shrimp lethality bioassay. It counts as in vivo. The conditions noted are these: 24 h, concentration not given. The protocol: as §4

By zone of inhibition is commonly meant the size of the clear area around the sample on an inoculated plate. A lower zone of inhibition goes with little suppression of growth. One may read the inhibition as the percentage by which the read-out fell short of the control.

For `COc1cc(/C=N/NC(=O)c2ccncc2)ccc1OCC=C(C)C` [NH3, (E)-N′-(3-Methoxy-4-((3-methylbut-2-en-1-yl)oxy)benzylidene)isonicotinohydrazide], the zone of inhibition at 1000 µg/mL stood at 23 mm in series [1], 33 mm in series [2] and 24 mm in series [3]. Further, in series [1] (24 h), the “Zone of Inhibition” value worked out at 22 mm. The inhibition at 25 µg/mL is 12 ± 0.4% in the series on B. subtilis ATCC 11774 (25 µg/mL) and 24 ± 0.7% in the series on S. aureus ATCC 25923 (25 µg/mL). Moreover, the figures for the inhibition at 50 µg/mL in the series with B. subtilis ATCC 11774, in the series on E. coli ATCC 10536 and in the series with S. aureus ATCC 25923 were 20 ± 0.7%, 36 ± 0.5% and 35 ± 1.2%, respectively. Also, the figures for the inhibition at 100 µg/mL with B. subtilis ATCC 11774, with E. coli ATCC 10536 and with S. aureus ATCC 25923 were 28 ± 0.8%, 50 ± 0.5% and 44 ± 2%, respectively. Further, the inhibition at 200 µg/mL was determined as 53 ± 0.7% in the series with B. subtilis ATCC 11774, 65 ± 0.2% with E. coli ATCC 10536 and 60 ± 1.5% in the series with S. aureus ATCC 25923. For the same molecule, the inhibition at 300 µg/mL in the series on B. subtilis ATCC 11774 is 74 ± 0.9%; with E. coli ATCC 10536, 85 ± 1.2%; in the series on S. aureus ATCC 25923 it was 78 ± 1%. For the same molecule, the results for the inhibition at 400 µg/mL with B. subtilis ATCC 11774 (400 µg/mL) and in the series on S. aureus ATCC 25923 were 84 ± 0.9% and 89 ± 1.5%, respectively. Further, in series [4], the LC50 at 24 h was determined as 240 µg/mL (≈ 707 µM).
For the molecule `CCCOc1ccc(/C=N/NC(=O)c2ccncc2)cc1` [NH6, (E)-N′-(4-Propoxybenzylidene) Isonicotinohydrazide], the zone of inhibition at 1000 µg/mL amounted to 23 mm in series [1], 22 mm in series [2] and 17 mm in series [3]. In addition, the inhibition at 50 µg/mL was determined as 10 ± 0.6% in the series on B. subtilis ATCC 11774, 14 ± 0.5% with E. coli ATCC 10536 and 5.5 ± 0.5% in the series on S. aureus ATCC 25923. For the same molecule, the inhibition at 100 µg/mL in the series on B. subtilis ATCC 11774 was 23 ± 0.7%; in the series with E. coli ATCC 10536, 28 ± 0.5%; in the series on S. aureus ATCC 25923, 25 ± 0.5%. Besides, the inhibition at 200 µg/mL with B. subtilis ATCC 11774 is 52 ± 0.8%; in the series on E. coli ATCC 10536, 50 ± 0.7%; in the series with S. aureus ATCC 25923, 52 ± 1.6%. For the same molecule, the inhibition at 300 µg/mL with B. subtilis ATCC 11774 was 70 ± 1.1%; in the series on E. coli ATCC 10536 it was 73 ± 0.7%; in the series with S. aureus ATCC 25923, 72 ± 1.2%. In addition, the inhibition at 25 µg/mL with E. coli ATCC 10536 (25 µg/mL) stood at 5 ± 0.2%. This molecule came in with an inhibition at 400 µg/mL with S. aureus ATCC 25923 of 80 ± 1%. In series [4], the LC50 at 24 h stood at 162 µg/mL (≈ 574 µM). In addition, the minimum survival percentage in series [5] amounted to 32.44 ± 2.0%.
